Data as given in PubChem BioAssay (NCI).
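Step 1: Grow cells in 96-well plates. Step 2: Expose to compound for 48 hours at 5 concentrations. Step 3: Interpolate endpoints linearly; if unreached, use highest concentration. Here, GI50 denotes the concentration required for 50% inhibition of growth. The concentration for full growth arrest is given as TGI.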

Key:
Assay in all cases: inhibition of tumour cell growth, NCI panel, 48 h
SK-OV-3 ovarian = tested on: SK-OV-3 ovarian
ACHN renal = tested on: ACHN renal
NCI-H522 lung = tested on: NCI-H522 lung
U251 CNS = tested on: U251 CNS
MCF7 breast = tested on: MCF7 breast
UACC-62 melanoma = tested on: UACC-62 melanoma
KM12 colon = tested on: KM12 colon
IGROV1 ovarian = tested on: IGROV1 ovarian
COLO 205 colon = tested on: COLO 205 colon
LOX IMVI melanoma = tested on: LOX IMVI melanoma

`COc1ccc2c(c1)c(-c1nc(-c3c[nH]c4ncccc34)cs1)cn2CCCCN1CCCCC1` gave a GI50 (SK-OV-3 ovarian) of 1.75 µM, a TGI (SK-OV-3 ovarian) of 3.18 µM and a GI50 (ACHN renal) of 1.66 µM. For the same compound, the TGI (ACHN renal) was 3.04 µM.
Work on `Cc1nc2ccc(S(=O)(=O)Nc3nccs3)cc2c(=O)n1NS(=O)(=O)c1nccs1` yielded a TGI (NCI-H522 lung) greater than 100 µM, a TGI (SK-OV-3 ovarian) greater than 100 µM and a TGI (U251 CNS) greater than 100 µM. For the same compound, the TGI (MCF7 breast) was greater than 100 µM, the TGI (UACC-62 melanoma) was greater than 100 µM and the TGI (ACHN renal) was greater than 100 µM. It also gave a TGI (KM12 colon) greater than 100 µM, a TGI (IGROV1 ovarian) greater than 100 µM and a TGI (COLO 205 colon) greater than 100 µM.
For `CN(C)CCNC(=O)c1cccc2[nH]c(-c3ccccn3)nc12`, the TGI (NCI-H522 lung) was greater than 63.8 µM, the TGI (SK-OV-3 ovarian) was greater than 100 µM and the TGI (U251 CNS) was greater than 100 µM. For the same compound, the TGI (MCF7 breast) was greater than 100 µM, the TGI (UACC-62 melanoma) was 42.7 µM and the TGI (KM12 colon) was greater than 100 µM. The TGI (IGROV1 ovarian) was greater than 100 µM, the TGI (LOX IMVI melanoma) was greater than 90.1 µM and the TGI (COLO 205 colon) was 33.6 µM.
Compound `CCOC(=O)c1sc2nc(SC)nc(Nc3ccc4c(c3)OCCO4)c2c1N` has a TGI (NCI-H522 lung) of 23.8 µM, a TGI (U251 CNS) of 21.2 µM and a TGI (MCF7 breast) of 23.6 µM. It also gave a TGI (UACC-62 melanoma) of 23.5 µM, a TGI (ACHN renal) of 19.8 µM and a TGI (KM12 colon) of 78.5 µM. The TGI (IGROV1 ovarian) was 78.6 µM, the TGI (LOX IMVI melanoma) was greater than 100 µM and the TGI (COLO 205 colon) was greater than 100 µM.
With `CNC(C)C(O)c1ccc2oc3cc(=O)c4ccccc4c-3nc2c1` (centres undefined) the TGI (NCI-H522 lung) was 33.7 µM, the TGI (SK-OV-3 ovarian) was greater than 100 µM and the TGI (U251 CNS) was 22.4 µM. The TGI (MCF7 breast) was 41.7 µM, the TGI (UACC-62 melanoma) was 14.3 µM and the TGI (ACHN renal) was 57.9 µM. It also gave a TGI (KM12 colon) of 49.8 µM, a TGI (IGROV1 ovarian) greater than 100 µM and a TGI (LOX IMVI melanoma) of 26.7 µM. It also gave a TGI (COLO 205 colon) greater than 100 µM.
With `CCCCC1C=Cn2c(=O)oc3c(OC(C)C)c(C)c(O)c1c32` (centres undefined) the TGI (NCI-H522 lung) was 5.87 µM, the TGI (SK-OV-3 ovarian) was 13.3 µM and the TGI (U251 CNS) was 11 µM. The TGI (MCF7 breast) was 1.81 µM, the TGI (UACC-62 melanoma) was 2.97 µM and the TGI (ACHN renal) was 3.35 µM. For the same compound, the TGI (KM12 colon) was 8.26 µM, the TGI (IGROV1 ovarian) was 10.1 µM and the TGI (LOX IMVI melanoma) was 5.52 µM. It also gave a TGI (COLO 205 colon) of 9.97 µM.
`O=C1c2ccccc2OCC12OC21C=CC(Cl)=CC1` (centres undefined) showed a TGI (SK-OV-3 ovarian) greater than 100 µM, a TGI (U251 CNS) of 44.4 µM and a TGI (MCF7 breast) greater than 100 µM. It also gave a TGI (UACC-62 melanoma) greater than 100 µM, a TGI (ACHN renal) greater than 100 µM and a TGI (KM12 colon) of 41.9 µM. The TGI (IGROV1 ovarian) was greater than 100 µM, the TGI (LOX IMVI melanoma) was 30.4 µM and the TGI (COLO 205 colon) was 33.4 µM.
`O=C(CBr)c1ccc2cc(Br)c3ccccc3c2c1` was tested, and the TGI (NCI-H522 lung) was 37.6 µM, the TGI (U251 CNS) was greater than 100 µM and the TGI (MCF7 breast) was 73.8 µM. It also gave a TGI (UACC-62 melanoma) of 29.8 µM, a TGI (ACHN renal) greater than 100 µM and a TGI (KM12 colon) of 44.1 µM. For the same compound, the TGI (IGROV1 ovarian) was 62.4 µM, the TGI (LOX IMVI melanoma) was greater than 100 µM and the TGI (COLO 205 colon) was greater than 100 µM.
`CCC(=O)OCN(C)c1nc(N(C)COC(=O)CC)nc(N(C)COC(=O)CC)n1` gave a TGI (SK-OV-3 ovarian) greater than 100 µM, a TGI (U251 CNS) greater than 100 µM and a TGI (MCF7 breast) greater than 100 µM. For the same compound, the TGI (UACC-62 melanoma) was 35.8 µM, the TGI (KM12 colon) was greater than 100 µM and the TGI (IGROV1 ovarian) was greater than 100 µM. The TGI (LOX IMVI melanoma) was 70.3 µM and the TGI (COLO 205 colon) was 59.2 µM.
With `O=C(N[C@@H](Cc1coc2ccccc12)B(O)O)[C@@H]1C[C@H]2CC[C@@H]1O2` the GI50 (NCI-H522 lung) was 5.04 µM, the TGI (NCI-H522 lung) was 81.6 µM and the GI50 (SK-OV-3 ovarian) was 9.17 µM. It also gave a TGI (SK-OV-3 ovarian) greater than 100 µM, a GI50 (U251 CNS) of 17.8 µM and a TGI (U251 CNS) greater than 100 µM. It also gave a GI50 (MCF7 breast) of 3.25 µM, a TGI (MCF7 breast) greater than 100 µM and a GI50 (UACC-62 melanoma) of 5.29 µM. For the same compound, the TGI (UACC-62 melanoma) was 55.2 µM, the GI50 (ACHN renal) was 1.93 µM and the TGI (ACHN renal) was greater than 100 µM. It also gave a GI50 (KM12 colon) of 11.4 µM, a TGI (KM12 colon) of 57.9 µM and a GI50 (IGROV1 ovarian) of 16.1 µM. It also gave a TGI (IGROV1 ovarian) greater than 100 µM, a GI50 (LOX IMVI melanoma) of 5.21 µM and a TGI (LOX IMVI melanoma) of 34.5 µM. For the same compound, the GI50 (COLO 205 colon) was 23.1 µM and the TGI (COLO 205 colon) was greater than 100 µM.
In the case of `COc1ccc(C2COc3c(ccc(O)c3C)C2)cc1OC` (centres undefined), the TGI (NCI-H522 lung) is reported as 142 µM, the TGI (SK-OV-3 ovarian) is reported as greater than 200 µM and the TGI (U251 CNS) is reported as greater than 200 µM. The TGI (MCF7 breast) was greater than 200 µM, the TGI (UACC-62 melanoma) was greater than 200 µM and the TGI (KM12 colon) was greater than 200 µM. The TGI (IGROV1 ovarian) was greater than 200 µM, the TGI (LOX IMVI melanoma) was 128 µM and the TGI (COLO 205 colon) was 166 µM.
`COc1ccc(/C=N/n2cnc3c(c2=O)SC(=C(C#N)C#N)N3c2ccccc2)cc1` was tested, and the TGI (NCI-H522 lung) was greater than 100 µM, the TGI (SK-OV-3 ovarian) was greater than 100 µM and the TGI (U251 CNS) was greater than 100 µM. For the same compound, the TGI (UACC-62 melanoma) was greater than 100 µM, the TGI (ACHN renal) was greater than 100 µM and the TGI (KM12 colon) was greater than 100 µM. It also gave a TGI (IGROV1 ovarian) greater than 100 µM and a TGI (COLO 205 colon) greater than 100 µM.
`CCCO[C@@H]1[C@@H](OC(C)=O)[C@@H](OC(C)=O)C(C)(C)/C=C/[C@H](C)C(=O)[C@@]2(OC(C)=O)C[C@@](C)(OC(C)=O)[C@H](OC(C)=O)[C@@H]2[C@H]2OC(=O)CC[C@@]12OC(=O)c1ccccc1` was tested, and the TGI (NCI-H522 lung) was greater than 25 µM, the TGI (SK-OV-3 ovarian) was greater than 25 µM and the TGI (U251 CNS) was greater than 25 µM. It also gave a TGI (MCF7 breast) greater than 25 µM, a TGI (UACC-62 melanoma) greater than 25 µM and a TGI (ACHN renal) greater than 25 µM. It also gave a TGI (KM12 colon) greater than 25 µM, a TGI (IGROV1 ovarian) greater than 25 µM and a TGI (LOX IMVI melanoma) greater than 25 µM. It also gave a TGI (COLO 205 colon) greater than 25 µM.
`COC(=O)C1=C(OC)[C@H]2C#C/C=C\C#C[C@@H]3Nc4c(cc(O)c5c4C(=O)c4ccccc4C5=O)[C@]24O[C@@]34[C@H]1C` gave a TGI (NCI-H522 lung) of 0.0177 µM, a TGI (U251 CNS) of less than 0.0133 µM and a TGI (MCF7 breast) of 0.126 µM. It also gave a TGI (UACC-62 melanoma) of less than 0.01 µM, a TGI (ACHN renal) of less than 0.01 µM and a TGI (KM12 colon) of 0.0475 µM. It also gave a TGI (IGROV1 ovarian) of 0.167 µM, a TGI (LOX IMVI melanoma) of less than 0.01 µM and a TGI (COLO 205 colon) of 0.014 µM.
Work on `C/C(=N\NC(=S)N1CCCC1)c1nc2ncccc2[nH]1` yielded a TGI (NCI-H522 lung) of 30.2 µM, a TGI (SK-OV-3 ovarian) of 54.2 µM and a TGI (U251 CNS) of 13.5 µM. The TGI (MCF7 breast) was 13.4 µM, the TGI (UACC-62 melanoma) was 11.2 µM and the TGI (ACHN renal) was 11.4 µM. It also gave a TGI (KM12 colon) of 23.8 µM, a TGI (LOX IMVI melanoma) of 13.1 µM and a TGI (COLO 205 colon) of 28.5 µM.
In the case of `C(=Nc1ccc2c(c1)Cc1ccccc1-2)c1ccccn1`, the TGI (NCI-H522 lung) is reported as greater than 100 µM, the TGI (U251 CNS) is reported as greater than 100 µM and the TGI (UACC-62 melanoma) is reported as greater than 100 µM. It also gave a TGI (ACHN renal) greater than 100 µM, a TGI (KM12 colon) greater than 100 µM and a TGI (IGROV1 ovarian) greater than 100 µM. It also gave a TGI (LOX IMVI melanoma) greater than 100 µM.
